Where a name gives a salt, the structure may show the parent alone.

For this assay, the target named is T1, human blood clotting factor VIIa (Homo sapiens, UniProt P08709).
T1 construct: 5 nM human blood clotting factor VIIa
T1 sequence (P08709 213-466 limits assumed): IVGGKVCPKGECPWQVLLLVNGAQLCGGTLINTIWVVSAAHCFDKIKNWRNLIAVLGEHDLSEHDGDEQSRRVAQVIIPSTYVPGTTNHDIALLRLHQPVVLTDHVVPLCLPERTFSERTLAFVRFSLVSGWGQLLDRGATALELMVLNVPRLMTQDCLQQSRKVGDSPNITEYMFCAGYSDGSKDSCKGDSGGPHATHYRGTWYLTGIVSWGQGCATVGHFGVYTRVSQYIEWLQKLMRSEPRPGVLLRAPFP
T1 sequence (P08709 61-212 limits assumed): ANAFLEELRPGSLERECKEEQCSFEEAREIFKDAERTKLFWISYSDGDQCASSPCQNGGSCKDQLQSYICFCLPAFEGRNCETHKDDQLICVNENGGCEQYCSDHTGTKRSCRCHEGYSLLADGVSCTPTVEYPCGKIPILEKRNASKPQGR
T1 sequence (P13726 33-295 partner): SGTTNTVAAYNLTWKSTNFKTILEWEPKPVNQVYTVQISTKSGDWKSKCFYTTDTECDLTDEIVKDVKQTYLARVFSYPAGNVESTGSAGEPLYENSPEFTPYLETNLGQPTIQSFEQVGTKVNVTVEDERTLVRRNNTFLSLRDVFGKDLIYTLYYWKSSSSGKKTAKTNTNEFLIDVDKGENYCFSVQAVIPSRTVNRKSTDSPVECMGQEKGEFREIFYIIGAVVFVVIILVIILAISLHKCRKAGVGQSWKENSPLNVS
In words: Inhibiting activity against blood clotting factor VIIa (Spectrozyme VII chromogenic assay). The assay is classed as biochemical. The conditions noted are these: 10 nM human tissue factor, 5 nM human blood clotting factor VIIa, Spectrozyme VII substrate, 40 minutes at room temperature, absorbance 405 nm. The method, then:
Pharmacological Activity Test (Inhibiting Activity Against Blood Clotting Factor VIIa)
Compounds of the present invention (Examples 1-4, 1-26, 1-39, 1-40 and 8-3) were each dissolved in dimethyl sulfoxide to 5 mg/ml, and then each solution was diluted 50-fold with reaction buffer to prepare a 100 μg/ml solution (2% dimethyl sulfoxide solution) Also, a 10-fold dilution series with reaction buffer was prepared with the compound solutions from 100 μg/ml to 1 ng/ml. Separately, dimethyl sulfoxide alone was diluted 50-fold with reaction buffer to prepare a 2% dimethyl sulfoxide solution as a control. The composition of the reaction buffer was 50 mM Tris-acetate (pH 7.5), 15 mM calcium chloride (CaCl2), 0.15 M sodium chloride (NaCl) and 6 mg/ml Cephalin. There were also added to the buffer 10 nM human tissue factor (TF) and 5 nM human blood clotting factor VIIa, to prepare enzyme solutions. After separating off 65 μl of each solution, a 10 μl portion of the 2% dimethyl sulfoxide solution of each compound of the invention was added and preincubation was performed at room temperature. As a substrate there was added 25 μl of 1.0 mM Spectrozyme VII, and reaction was conducted for 40 minutes at room temperature. The enzyme reaction rate was quantified by the change ion absorbance of released 4-nitroanilide at 405 nm.
For measurement of the inhibiting activity against human blood clotting factor VIIa, the enzyme reaction rate was determined in the presence of the above-mentioned compounds of the present invention from 10 μg/ml to 0.1 ng/ml. The IC50 values were calculated based on nonlinear regression analysis, as an index of the inhibiting activity against human blood clotting factor VIIa.
As for `N=C(N)c1ccc2cc(Oc3ccc(NS(=O)(=O)c4ccc5ccccc5c4)cc3C(=O)O)ccc2c1` [Example 1-4, 2-(6-amidino-2-naphthyloxy)-5-(2-naphthalenesulfonyl)aminobenzoic acid trifluoroacetate], the IC50 (commonly the midpoint of a concentration-inhibition curve) amounted to 1430 nM.

As for `COc1ccc(S(=O)(=O)Nc2ccc(Oc3ccc4cc(C(=N)N)ccc4c3)c(-c3ccccc3C(=O)O)c2)cc1` [Example 1-26, 2′-(6-amidino-2-naphthyloxy)-5′-(4-methoxybenzenesulfonyl)amino-1,1′-biphenyl-2-carboxylic acid trifluoroacetate], the IC50 came out at 210 nM.

In the case of `CC(=O)N1CCc2ccc(S(=O)(=O)Nc3ccc(Oc4ccc5cc(C(=N)N)ccc5c4)c(-c4ccccc4C(=O)O)c3)cc2C1` [Example 1-39, 2′-(6-amidino-2-naphthyloxy)-5′-[1,2,3,4-tetrafluoro-2-(acetyl)isoquinoline-7-sulfonyl)amino-1,1′-biphenyl-2-carboxylic acid trifluoroacetate], the IC50 came to 30 nM.

For the compound `Cc1ccc(S(=O)(=O)Nc2ccc(Oc3ccc4cc(C(=N)N)ccc4c3)c(-c3ccccc3C(=O)O)c2)cc1Cl` [Example 1-40, 2′-(6-amidino-2-naphthyloxy)-5′-(3-chloro-4-methylbenzenesulfonyl)amino-1,1′-biphenyl-2-carboxylic acid trifluoroacetate], the IC50 was 40 nM.

Consider `Cc1ccc(S(=O)(=O)Nc2ccc(Oc3ccc4cc(C(=N)N)ccc4c3)c(-c3ccc(C(=O)NCC(C)C)cc3C(=O)O)c2)cc1Cl` [Example 8-3, 2′-(6-amidino-2-naphthyloxy)-4-(2-methylpropylcarbamoyl)-5′-(3-chloro-4-methylbenzenesulfonyl)amino-1,1′-biphenyl-2-carboxylic acid trifluoroacetate], for which the IC50 was 4 nM.
